These results are taken from ChEMBL document CHEMBL5236671, “Synthesis and biological evaluation of novel aromatic amide derivatives as potential BCR-ABL inhibitors” (Bioorg Med Chem Lett, 2023).

A word on the IC50: it is the midpoint of a concentration-inhibition curve.

Active and inactive are the calls of the source. No cut-off for these calls is given here.

Assay [1] relates to K562. As to the kind of experiment: Antitumor activity against human K562 cells assessed as inhibition of cell growth. It is filed as functional, cell-based.
A further assay has as its system MCF7. As to the kind of experiment: Antitumor activity against human MCF7 cells assessed as inhibition of cell growth. Type of assay: functional, cell-based.
A further assay concerns HL-60. As to the kind of experiment: Antitumor activity against human HL-60 cells assessed as inhibition of cell growth. Type of assay: functional, cell-based.
The target in assay [2] is Crk-like protein (Homo sapiens) (UniProt P46109). As to the kind of experiment: Inhibition of CRKL phosphorylation in human K562 cells at 2.5 to 10 uM by Western blot analysis. The conditions noted are these: dose 2.5-10 µM. It is filed as cell-based. For orientation: Immunoblotting shows a protein as a band on a membrane.
Crk-like protein (Homo sapiens), sequence (P46109 whole entry): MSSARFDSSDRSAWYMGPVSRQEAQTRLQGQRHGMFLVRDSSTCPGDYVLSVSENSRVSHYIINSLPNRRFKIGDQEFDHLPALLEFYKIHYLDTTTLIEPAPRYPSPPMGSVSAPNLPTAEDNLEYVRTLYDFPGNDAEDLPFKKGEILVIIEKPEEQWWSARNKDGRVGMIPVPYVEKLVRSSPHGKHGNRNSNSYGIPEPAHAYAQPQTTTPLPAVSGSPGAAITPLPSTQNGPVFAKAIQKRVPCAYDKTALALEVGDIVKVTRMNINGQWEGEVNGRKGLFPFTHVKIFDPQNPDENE
Assay [3] concerns K562. As to the kind of experiment: Induction of apoptosis in human K562 cells assessed as increase in cleaved caspase-3 expression by Western blot analysis. Type of assay: functional, cell-based. The conditions noted are these: dose 2.5-10 µM.
For assay [4], the system named is K562. As to the kind of experiment: Induction of apoptosis in human K562 cells assessed as increase in caspase-3 expression by Western blot analysis. It is filed as functional, cell-based. The conditions noted are these: dose 2.5-10 µM.
Assay [5] has as its target Tyrosine-protein kinase ABL1 (Homo sapiens) (UniProt P00519). As to the kind of experiment: Inhibition of ABL1 phosphorylation in human K562 cells at 2.5 to 10 uM by Western blot analysis. As to conditions: dose 2.5-10 µM. Type of assay: cell-based.
Assay [6] has as its system K562. Briefly: Antimigratory activity against human K562 cells assessed as decrease in cell migration at 2.5 to 10 uM. It is filed as functional, cell-based. The conditions noted are these: dose 2.5-10 µM.
In assay [7] the test system is K562. Briefly: Induction of apoptosis in human K562 cells assessed as necrotic cells at 10 uM incubated for 24 hrs by Annexin V-FITC staining based flow cytometric analysis (reference value: 0.82 % ). Type of assay: functional. (In general: In flow cytometry, cells or beads pass a laser one at a time.)
Assay [8] concerns K562. As to the kind of experiment: Induction of apoptosis in human K562 cells assessed as total apoptotic cells at 10 uM incubated for 24 hrs by Annexin V-FITC staining based flow cytometric analysis (reference value: 5.72 % ). Type of assay: functional.
Assay [9] relates to K562. As to the kind of experiment: Induction of apoptosis in human K562 cells assessed as viable cells at 10 uM incubated for 24 hrs by Annexin V-FITC staining based flow cytometric analysis (reference value: 93.4 % ). Type of assay: functional. As to conditions: read-out: Activity.
The subject of assay [10] is K562. As to the kind of experiment: Induction of apoptosis in human K562 cells assessed as late apoptotic cells at 10 uM incubated for 24 hrs by Annexin V-FITC staining based flow cytometric analysis (reference value: 1.82 % ). It is filed as functional.
The subject of assay [11] is K562. Briefly: Induction of apoptosis in human K562 cells assessed as early apoptotic cells at 10 uM incubated for 24 hrs by Annexin V-FITC staining based flow cytometric analysis (reference value: 3.90 % ). Type of assay: functional.
Assay [12] concerns K562. Briefly: Induction of apoptosis in human K562 cells assessed as late apoptotic cells at 5 uM incubated for 24 hrs by Annexin V-FITC staining based flow cytometric analysis (reference value: 1.82 % ). It is filed as functional.
The subject of assay [13] is K562. Briefly: Induction of apoptosis in human K562 cells assessed as viable cells at 5 uM incubated for 24 hrs by Annexin V-FITC staining based flow cytometric analysis (reference value: 93.4 % ). Type of assay: functional. The conditions noted are these: read-out: Activity.
Assay [14] concerns K562. As to the kind of experiment: Induction of apoptosis in human K562 cells assessed as late apoptotic cells at 2.5 uM incubated for 24 hrs by Annexin V-FITC staining based flow cytometric analysis (reference value: 1.82 % ). Type of assay: functional.
The subject of assay [15] is K562. Briefly: Induction of apoptosis in human K562 cells assessed as necrotic cells at 2.5 uM incubated for 24 hrs by Annexin V-FITC staining based flow cytometric analysis (reference value: 0.82 % ). Type of assay: functional.
In assay [16] the test system is K562. Briefly: Induction of apoptosis in human K562 cells assessed as necrotic cells at 5 uM incubated for 24 hrs by Annexin V-FITC staining based flow cytometric analysis (reference value: 0.82 % ). Type of assay: functional.
Assay [17] has as its system K562. As to the kind of experiment: Induction of apoptosis in human K562 cells assessed as viable cells at 2.5 uM incubated for 24 hrs by Annexin V-FITC staining based flow cytometric analysis (reference value: 93.4 % ). Type of assay: functional. The conditions noted are these: read-out: Activity.
The test system of assay [18] is K562. As to the kind of experiment: Induction of apoptosis in human K562 cells assessed as early apoptotic cells at 2.5 uM incubated for 24 hrs by Annexin V-FITC staining based flow cytometric analysis (reference value: 3.90 % ). Type of assay: functional.
Assay [19] has as its system K562. Briefly: Induction of apoptosis in human K562 cells assessed as early apoptotic cells at 5 uM incubated for 24 hrs by Annexin V-FITC staining based flow cytometric analysis (reference value: 3.90 % ). Type of assay: functional.

Tyrosine-protein kinase ABL1 (Homo sapiens), sequence (P00519 whole entry): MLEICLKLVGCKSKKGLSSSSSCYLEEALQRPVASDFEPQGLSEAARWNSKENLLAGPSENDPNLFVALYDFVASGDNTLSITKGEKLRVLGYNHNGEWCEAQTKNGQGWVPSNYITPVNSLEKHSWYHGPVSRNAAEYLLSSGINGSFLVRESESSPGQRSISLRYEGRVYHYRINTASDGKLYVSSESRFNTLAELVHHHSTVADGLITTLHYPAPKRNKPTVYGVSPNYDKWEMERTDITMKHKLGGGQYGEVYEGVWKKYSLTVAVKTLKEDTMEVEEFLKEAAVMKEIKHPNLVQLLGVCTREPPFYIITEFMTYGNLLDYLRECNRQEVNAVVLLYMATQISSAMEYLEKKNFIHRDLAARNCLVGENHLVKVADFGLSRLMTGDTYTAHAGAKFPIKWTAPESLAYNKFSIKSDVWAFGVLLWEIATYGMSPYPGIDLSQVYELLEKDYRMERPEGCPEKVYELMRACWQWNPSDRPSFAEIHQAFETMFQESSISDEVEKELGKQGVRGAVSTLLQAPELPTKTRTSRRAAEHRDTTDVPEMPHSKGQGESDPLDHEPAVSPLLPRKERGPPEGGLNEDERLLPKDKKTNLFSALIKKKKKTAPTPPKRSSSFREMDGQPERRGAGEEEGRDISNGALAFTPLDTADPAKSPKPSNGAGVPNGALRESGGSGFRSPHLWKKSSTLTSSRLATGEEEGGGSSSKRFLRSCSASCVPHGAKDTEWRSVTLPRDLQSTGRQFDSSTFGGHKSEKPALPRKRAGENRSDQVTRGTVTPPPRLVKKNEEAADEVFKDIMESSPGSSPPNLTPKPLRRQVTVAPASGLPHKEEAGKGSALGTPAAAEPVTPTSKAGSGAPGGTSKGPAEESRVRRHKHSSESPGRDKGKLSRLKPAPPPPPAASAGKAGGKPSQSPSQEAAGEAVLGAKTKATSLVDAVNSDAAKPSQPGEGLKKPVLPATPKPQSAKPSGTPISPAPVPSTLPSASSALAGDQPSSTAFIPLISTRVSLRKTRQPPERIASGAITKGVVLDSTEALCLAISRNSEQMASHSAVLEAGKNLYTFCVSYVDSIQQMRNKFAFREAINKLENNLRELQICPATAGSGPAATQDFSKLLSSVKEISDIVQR

Consider `CC(=O)N1CCN(Cc2ccc(C(=O)Nc3cc(-n4cnc(C)c4)cc(C(F)(F)F)c3)cc2)CC1`, for which the half-inhibitory concentration (IC50) in the assay on K562 [1], in the assay on MCF7 and in the assay with HL-60 was more than 50 µM throughout.
Turning to `Cc1cn(-c2cc(NC(=O)c3ccc(CN4CCN(C)CC4)cc3)ccc2C)cn1`, the half-inhibitory concentration (IC50) in the assay on K562 [1] is 39.7 µM; in the assay with MCF7, more than 50 µM; with HL-60, more than 50 µM.
On to `Cc1cn(-c2cc(NC(=O)c3ccc(CN4CCCC4)cc3)cc(C(F)(F)F)c2)cn1`, for which the results for the IC50 in the assay on K562 [1], in the assay with MCF7 and in the assay with HL-60 were 13.4 µM, 37.9 µM and 24.9 µM, respectively.
Take `CCCCN1CCN(Cc2ccc(C(=O)Nc3cc(-n4cnc(C)c4)cc(C(F)(F)F)c3)cc2)CC1`: the inhibition result in assay [2] and in assay [5] was “Active” throughout. The Activity result in the assay with K562 [3] and with K562 [4] was “Dose-Dependent Effect” in each case. Moreover, the IC50 in the assay with K562 [1] came out at 6.03 µM; in the assay with MCF7, 20.1 µM; in the assay on HL-60, 17.9 µM. Moreover, the result with K562 [6] was Active.
In the case of `Cc1cn(-c2cc(NC(=O)c3ccc(CN4CCOC(C)C4)cc3)cc(C(F)(F)F)c2)cn1` (stereo unspecified), the concentration for half-maximal inhibition (IC50) is 16.8 µM in the assay on K562 [1], more than 50 µM in the assay with MCF7 and 25.8 µM in the assay on HL-60.
In the case of `Cc1cn(-c2cc(NC(=O)c3ccc(CN4CCN(C)CC4)cc3)cc(C(F)(F)F)c2)cn1`, the results for the IC50 in the assay on K562 [1], with MCF7 and in the assay with HL-60 were 13.6 µM, 19 µM and 21.2 µM, respectively.
As for `Cc1cn(-c2cccc(NC(=O)c3ccc(CN4CCN(C)CC4)cc3)c2)c(C)n1`, the figures for the IC50 in the assay on K562 [1], in the assay with MCF7 and in the assay with HL-60 were 15.8 µM, more than 50 µM and 36 µM, respectively.
For the compound `Cc1ccc(NC(=O)c2ccc(CN3CCN(C)CC3)cc2)cc1Nc1nccc(-c2cccnc2)n1` [IMATINIB], the Activity in the assay on K562 [7] stood at 0.2%; in the assay with K562 [8] it was 23.1%; in the assay with K562 [10] it was 18.2%; in the assay on K562 [11], 4.9%. The 50% inhibitory concentration (IC50) with K562 [1] stood at 14 µM; with MCF7, 25.6 µM; with HL-60, 17.2 µM. Moreover, the viability at 10 µM in the assay on K562 [9] was 76.7%.
Consider `Cc1cn(-c2cc(NC(=O)c3ccc(CN4CCOC[C@@H]4C)cc3)cc(C(F)(F)F)c2)cn1`, for which the concentration for half-maximal inhibition (IC50) worked out at 24.1 µM in the assay on K562 [1], 24.2 µM with MCF7 and 16.9 µM in the assay with HL-60.
Regarding `Cc1cn(-c2cc(NC(=O)c3ccc(CN4CCN(C(C)(C)C)CC4)cc3)cc(C(F)(F)F)c2)cn1`, the Activity in the assay with K562 [12] is 22.68%; in the assay with K562 [14] it was 10.84%; in the assay with K562 [7], 4.56%; in the assay with K562 [8] it was 37.58%; with K562 [15], 1%; in the assay with K562 [3], “Dose-Dependent Effect”. Further, the Activity result in the assay on K562 [4] is “Dose-Dependent Effect”; in the assay on K562 [16], 3.44%; in the assay on K562 [18] it was 1.9%; in the assay with K562 [19], 2.8%; in the assay with K562 [10], 34.56%; in the assay with K562 [11] it was 3.02%. In the assay on K562 [13], the viability at 5 µM was determined as 71.1%. Moreover, the inhibition entry in [2] and in assay [5] was “Active” in each case. The IC50 came to 5.66 µM in the assay on K562 [1], 23.5 µM in the assay on MCF7 and 16.8 µM in the assay with HL-60. In addition, the viability at 10 µM with K562 [9] turned out to be 57.9%. Also, the result in the assay on K562 [6] was Active. In addition, the viability at 2.5 µM in the assay with K562 [17] came out at 86.3%.
In the case of `COc1ccc(NC(=O)c2ccc(CN3CCN(C)CC3)cc2)cc1-n1cc(C)nc1C`, the IC50 in the assay on K562 [1] stood at 31.4 µM; in the assay on MCF7, 29.1 µM; in the assay on HL-60, 23.4 µM.
In the case of `CCN1CCN(Cc2ccc(C(=O)Nc3cc(-n4cnc(C)c4)cc(C(F)(F)F)c3)cc2)CC1`, the IC50 with K562 [1] is 13.3 µM; in the assay on MCF7 it was more than 50 µM; with HL-60 it was 17.2 µM.
In the case of `CCCCN1CCN(Cc2ccc(C(=O)Nc3ccc(C)c(-n4cnc(C)c4)c3)cc2)CC1`, the concentration for half-maximal inhibition (IC50) in the assay with K562 [1] is 33.2 µM; in the assay with MCF7 it was more than 50 µM; in the assay with HL-60 it was more than 50 µM.
On to `CN1CCN(Cc2ccc(C(=O)Nc3cc(-n4cnc(C#N)c4)cc(C(F)(F)F)c3)cc2)CC1`, for which the IC50 in the assay on K562 [1] was 13.3 µM; in the assay with MCF7, 15.6 µM; in the assay with HL-60, 18.6 µM.
For `Cc1cn(-c2cc(NC(=O)c3ccc(CN4CCOCC4)cc3)cc(C(F)(F)F)c2)cn1` the same measures were 23.6 µM, more than 50 µM and more than 50 µM.
Consider `Cc1cn(-c2cc(NC(=O)c3ccc(CN4CCN(C(=O)C5CC5)CC4)cc3)cc(C(F)(F)F)c2)cn1`, for which the figures for the IC50 in the assay on K562 [1], with MCF7 and in the assay with HL-60 were 14.5 µM, more than 50 µM and 13.3 µM, respectively.
As to `CCCCN1CCN(Cc2ccc(C(=O)Nc3cc(-n4ccnc4)cc(C(F)(F)F)c3)cc2)CC1`, the concentration for half-maximal inhibition (IC50) in the assay on K562 [1] came to 22.4 µM; in the assay with MCF7, 30.2 µM; with HL-60, 34.9 µM.
For `Cc1cn(-c2cc(NC(=O)c3ccc(CN4CC(C)OC(C)C4)cc3)cc(C(F)(F)F)c2)cn1` (stereo unspecified) the same measures were 13.2 µM, 40.6 µM and 22.1 µM.
On to `CN1CCN(Cc2ccc(C(=O)Nc3cc(-n4ccnc4)cc(C(F)(F)F)c3)cc2)CC1`, for which the IC50 with K562 [1] turned out to be 15.4 µM; with MCF7, 29 µM; in the assay with HL-60 it was 18.8 µM.
For `Cc1cn(-c2cc(NC(=O)c3ccc(CN4CCN(C(C)C)CC4)cc3)cc(C(F)(F)F)c2)cn1` the same measures were 10.5 µM, 13.1 µM and 14.8 µM.
For `Cc1cn(-c2cc(NC(=O)c3ccc(CN4CCN(C)CC4)cc3)cc(C(F)(F)F)c2)c(C)n1` the same measures were 10.8 µM, 9.61 µM and 17 µM.
